Test results taken from PMC4642525, “Conjugates of γ-Carbolines and Phenothiazine as new selective inhibitors of butyrylcholinesterase and blockers of NMDA receptors for Alzheimer Disease” (Scientific Reports, 2015).
Entries after “also recorded” stand apart in the source; their conditions may differ. Like-named read-outs stand apart in the source and are kept apart here.

Assays:
[1] = molecular target: T1, butyrylcholinesterase (BChE, EC 3.1.1.8, from equine serum) (Equus caballus, UniProt P81908); test: biochemical; format: biochemical
T1 construct: butyrylcholinesterase (BChE, EC 3.1.1.8, from equine serum); purchased Sigma-Aldrich (Germany); host or cells: equine serum
Method: (§1) Acetylcholinesterase (AChE, EC 3.1.1.7, from human erythrocyte), butyrylcholinesterase (BChE, EC 3.1.1.8, from equine serum), carboxylesterase (CaE, EC 3.1.1.1, from porcine liver), acetylthiocholine iodide (ATCh), butylthiocholine iodide (BTCh), 5,5´-dithiobis-(2-nitrobenzoic acid) (DTNB), 4-nitrophenyl acetate (4-NPA), were purchased from Sigma-Aldrich (Germany).
(§2) AChE and BChE activities were measured by the method of Ellman and coworkers as described earlier. The assay solution consisted of 0.1 M K/Na phosphate buffer pH 7.5, 25 °C with the addition of 0.33 mM DTNB, 0.02 unit/mL of AChE or BChE and 1 mM of substrate (ATCh or BTCh, respectively). Assays were carried out with a blank containing all components except ATCh and BTCh in order to account for non-enzymatic reaction.
(§3) The tested compounds were dissolved in DMSO; the incubation mixture contained 2% of the solvent. […] The test compounds were added to the assay solution and preincubated at 25 °C with the enzymes for 10 min followed by the addition of substrate. A parallel control was made for the assay solution with no inhibitor. Measurements were performed in a BioRad Benchmark Plus microplate spectrophotometer (France). Each experiment was performed in triplicate. The results were expressed as the mean ± SEM. The reaction rates in the presence and absence of inhibitor were compared, and the percent of residual enzyme activity due to the presence of test compounds was calculated.

[2] = molecular target: T2, carboxylesterase (CaE, EC 3.1.1.1, from porcine liver) (Sus scrofa, UniProt Q29550); test: In vitro CaE inhibition (4-nitrophenyl acetate hydrolysis); format: biochemical; details: pH 8.0, 25 °C, 10 min preincubation, read-out: IC50 (μM) ± SEM CaE
T2 sequence (Q29550 19-566): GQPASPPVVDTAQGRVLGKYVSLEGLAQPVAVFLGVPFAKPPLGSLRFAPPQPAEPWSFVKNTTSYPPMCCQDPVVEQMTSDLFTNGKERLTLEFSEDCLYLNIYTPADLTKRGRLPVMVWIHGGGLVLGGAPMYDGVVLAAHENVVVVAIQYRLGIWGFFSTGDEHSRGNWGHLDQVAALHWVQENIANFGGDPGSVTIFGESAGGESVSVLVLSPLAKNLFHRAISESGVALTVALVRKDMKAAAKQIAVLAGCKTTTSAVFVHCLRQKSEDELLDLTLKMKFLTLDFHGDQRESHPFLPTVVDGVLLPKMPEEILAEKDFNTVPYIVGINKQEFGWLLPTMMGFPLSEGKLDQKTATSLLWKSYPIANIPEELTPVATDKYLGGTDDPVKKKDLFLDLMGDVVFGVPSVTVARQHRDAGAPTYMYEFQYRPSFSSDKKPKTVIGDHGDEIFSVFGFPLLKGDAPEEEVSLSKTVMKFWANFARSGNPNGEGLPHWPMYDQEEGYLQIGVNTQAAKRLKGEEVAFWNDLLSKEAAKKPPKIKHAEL
Method: as §1
The activity of CaE was determined spectrophotometrically by the release of 4-nitrophenol at 405 nm[51]. The assay solution consisted of 0.1 M K/Na phosphate buffer pH 8.0, 25 °C with the addition of 1 mM 4-nitrophenyl acetate and 0.02 unit/mL of CaE. Assays were carried out with a blank containing all components except CaE.
as §3

[3] = molecular target: T3, МК-801 binding site of NMDA receptor (Rattus norvegicus, UniProt P35439); test: Radioligand binding, [3H]MK-801 site of NMDA receptor, hippocampal membranes; details: for % of [3H]МК-801 blockade at 100 μM of compound: 100 μM compound
T3 construct: A membrane preparation of hippocampus for radioligand analysis was prepared; from tissue; host or cells: rat hippocampal membranes
Method: (§4) Effect of test compounds on the radioligand binding to NMDA receptors was determined by using a modified method as reported earlier by Zhou L-M and coworkers. Two radioactive ligands were used: [^3H] MK-801 (dizocilpine) with a specific activity of 210 Ci/mmol binding to all isolated NMDA receptors, and [^3H] ifenprodil with a specific activity of 79 Ci/mmol binding only to NMDA receptors containing the NR2B subunit.
(§5) A membrane preparation of hippocampus for radioligand analysis was prepared by the techniques described previously. The obtained membrane pellet was resuspended in a work buffer (5 mM HEPES/4.5 mM Tris buffer, pH 7.6) in a ratio of 1:5, and stored in liquid nitrogen. The reaction mixture (the final volume of 0.5 ml) contained 200 μl of the working buffer, 50 μl of 50 nM radioligand solution and 250 μl of the membrane suspension. Nonspecific binding was determined in the presence of 50 μl of […] of unlabeled ligand.
(§6) For binding study, the reaction mixture was incubated at room temperature for 2 hours. After incubation, the samples were filtered through the glass-fiber filters GF/B (Whatman), washed with the work buffer, dried and transferred to scintillation vials to which 5 ml of scintillation fluid was added containing 4g diphenyl oxazole (PPO), 0.2g diphenyloxazoil benzene (POPOP) and 1 liter of toluene. Radioactivity was determined in the scintillation counter TriCarb2800 TR (PerkinElmer, Packard, USA) with counting efficiency of about 65%.
(§7) Investigation of the effect of the tested compounds on the binding of [^3H]

[4] = molecular target: T4, ifenprodil binding site of NMDA receptor (NR2B subunit containing) (Rattus norvegicus, UniProt P35439+Q00960); test: Radioligand binding, [3H]ifenprodil site of NMDA receptor, hippocampal membranes; details: for % of [3H]ifenprodil blockade at 100 μM of compound: 100 μM compound
T4 construct: A membrane preparation of hippocampus for radioligand analysis was prepared; from tissue; host or cells: rat hippocampal membranes
Method: as §4, §5, §6, §7

[5] = molecular target: T1, butyrylcholinesterase (BChE, EC 3.1.1.8, from equine serum); test: biochemical; format: biochemical; details: for αKi (non-competitive inhibition constant) / Ki: BChE, means ± SEM, at least three experiments; for Ki: read-out: Ki (competitive inhibition constant); for type of BChE inhibition: Lineweaver-Burk analysis
Method: The test compounds were preincubated with the enzymes at 25 °C for 10 min, followed by the addition of the substrates. Parallel controls were made for an assay of the rate of hydrolysis of the same concentrations of substrates in the solutions with no inhibitor. The kinetic parameters of substrate hydrolysis were determined. Measurements were performed in a BioRad Benchmark Plus microplate spectrophotometer (France). Each experiment was performed in triplicate.

[6] = molecular target: T5, Acetylcholinesterase (AChE, EC 3.1.1.7, from human erythrocyte) (Homo sapiens, UniProt P22303); test: biochemical; format: biochemical
T5 construct: Acetylcholinesterase (AChE, EC 3.1.1.7, from human erythrocyte); purchased Sigma-Aldrich (Germany); host or cells: human erythrocytes
Method: as §1, §2, §3

[7] = equine serum BChE, pH 7.5, 25 °C, 10 min preincubation, read-out: IC50 (μM) ± SEM BChE
[8] = rat hippocampal membranes, read-out: [3H]МК-801, IC50
[9] = rat hippocampal membranes, read-out: [3H]ifenprodil, IC50
[10] = human erythrocyte AChE, pH 7.5, 25 °C, 10 min preincubation, read-out: IC50 (μM) ± SEM AChE

T4 sequence (Q00960 27-1482, other chains not shown): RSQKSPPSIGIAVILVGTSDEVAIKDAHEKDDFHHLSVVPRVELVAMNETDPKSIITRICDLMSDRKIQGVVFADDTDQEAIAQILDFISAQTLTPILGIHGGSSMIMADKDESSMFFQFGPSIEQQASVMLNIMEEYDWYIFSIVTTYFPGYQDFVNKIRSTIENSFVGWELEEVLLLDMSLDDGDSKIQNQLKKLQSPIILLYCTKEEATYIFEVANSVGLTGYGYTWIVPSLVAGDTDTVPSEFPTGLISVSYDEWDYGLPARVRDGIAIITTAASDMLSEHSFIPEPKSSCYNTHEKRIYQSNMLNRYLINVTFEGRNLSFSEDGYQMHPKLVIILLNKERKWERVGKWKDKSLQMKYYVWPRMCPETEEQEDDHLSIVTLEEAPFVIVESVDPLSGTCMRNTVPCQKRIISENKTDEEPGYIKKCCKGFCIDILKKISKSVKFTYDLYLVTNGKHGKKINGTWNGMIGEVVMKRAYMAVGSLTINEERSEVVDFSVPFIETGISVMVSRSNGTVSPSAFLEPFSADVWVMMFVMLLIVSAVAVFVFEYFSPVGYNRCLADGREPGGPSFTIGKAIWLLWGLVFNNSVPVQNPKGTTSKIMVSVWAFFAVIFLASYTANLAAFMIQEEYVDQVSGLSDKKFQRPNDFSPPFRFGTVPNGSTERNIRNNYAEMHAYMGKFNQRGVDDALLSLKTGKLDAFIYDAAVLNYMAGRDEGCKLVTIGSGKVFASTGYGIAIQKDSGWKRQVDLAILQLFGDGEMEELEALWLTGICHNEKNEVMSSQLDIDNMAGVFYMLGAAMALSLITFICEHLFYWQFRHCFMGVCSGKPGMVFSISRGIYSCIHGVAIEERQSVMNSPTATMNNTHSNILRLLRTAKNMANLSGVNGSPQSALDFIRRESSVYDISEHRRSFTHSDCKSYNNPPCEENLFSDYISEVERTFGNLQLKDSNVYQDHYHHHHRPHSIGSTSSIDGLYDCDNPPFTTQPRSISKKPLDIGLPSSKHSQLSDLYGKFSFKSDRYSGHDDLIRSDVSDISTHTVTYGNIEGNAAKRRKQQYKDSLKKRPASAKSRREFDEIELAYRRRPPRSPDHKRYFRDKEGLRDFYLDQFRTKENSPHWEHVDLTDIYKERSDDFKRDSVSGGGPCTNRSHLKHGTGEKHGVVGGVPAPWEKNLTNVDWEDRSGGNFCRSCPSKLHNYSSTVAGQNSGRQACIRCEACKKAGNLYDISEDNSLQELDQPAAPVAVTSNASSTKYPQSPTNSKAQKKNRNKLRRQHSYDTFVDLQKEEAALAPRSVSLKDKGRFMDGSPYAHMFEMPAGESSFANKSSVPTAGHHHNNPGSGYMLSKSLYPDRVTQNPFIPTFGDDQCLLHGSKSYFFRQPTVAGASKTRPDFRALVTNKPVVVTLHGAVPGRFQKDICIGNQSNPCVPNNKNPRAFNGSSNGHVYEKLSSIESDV
T5 sequence (P22303 other isoform, or with tags, fused parts or gaps): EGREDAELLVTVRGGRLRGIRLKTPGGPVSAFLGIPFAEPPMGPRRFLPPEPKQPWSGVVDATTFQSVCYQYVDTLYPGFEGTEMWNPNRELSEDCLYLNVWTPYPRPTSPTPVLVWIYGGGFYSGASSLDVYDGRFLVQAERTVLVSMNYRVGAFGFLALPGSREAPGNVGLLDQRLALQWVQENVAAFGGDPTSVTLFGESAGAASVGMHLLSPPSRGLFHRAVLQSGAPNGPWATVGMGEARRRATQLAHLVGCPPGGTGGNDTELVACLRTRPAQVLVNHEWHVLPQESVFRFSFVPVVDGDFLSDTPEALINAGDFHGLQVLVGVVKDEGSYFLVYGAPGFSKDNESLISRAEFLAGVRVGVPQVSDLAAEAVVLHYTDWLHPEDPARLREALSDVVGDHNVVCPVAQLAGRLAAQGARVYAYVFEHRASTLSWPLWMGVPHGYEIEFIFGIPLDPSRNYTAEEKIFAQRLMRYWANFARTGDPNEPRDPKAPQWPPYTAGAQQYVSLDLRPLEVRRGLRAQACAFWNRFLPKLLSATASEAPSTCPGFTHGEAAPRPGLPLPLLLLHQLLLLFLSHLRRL
T1 sequence (P81908 whole entry): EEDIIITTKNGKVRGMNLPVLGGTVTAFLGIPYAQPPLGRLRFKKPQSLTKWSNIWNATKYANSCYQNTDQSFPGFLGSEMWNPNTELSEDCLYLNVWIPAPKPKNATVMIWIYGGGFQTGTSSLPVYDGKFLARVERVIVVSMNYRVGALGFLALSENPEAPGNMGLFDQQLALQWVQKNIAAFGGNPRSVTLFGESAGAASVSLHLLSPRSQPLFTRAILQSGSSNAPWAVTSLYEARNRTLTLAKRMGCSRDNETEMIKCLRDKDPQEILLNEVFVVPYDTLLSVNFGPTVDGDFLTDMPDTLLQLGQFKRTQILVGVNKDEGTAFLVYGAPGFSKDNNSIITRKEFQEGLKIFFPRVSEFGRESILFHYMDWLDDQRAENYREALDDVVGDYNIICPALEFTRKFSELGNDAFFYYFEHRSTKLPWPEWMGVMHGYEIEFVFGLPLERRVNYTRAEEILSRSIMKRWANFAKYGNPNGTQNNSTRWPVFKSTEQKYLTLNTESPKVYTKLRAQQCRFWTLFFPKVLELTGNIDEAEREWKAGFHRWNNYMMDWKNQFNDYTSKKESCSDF

Structure (SMILES) | IC50 [1, 7] [µM] | IC50 [2] [µM] | IC50 [3, 8] [µM] | % of [3H]ifenprodil blockade at 100 μM of compound ([4]; rat hippocampal membranes) [%] | IC50 [4, 9] [µM] | αKi (non-competitive inhibition constant) [5] [µM] | Ki [5] [µM] | type of BChE inhibition [5] | % of [3H]МК-801 blockade at 100 μM of compound ([3]; rat hippocampal membranes) [%] | IC50 [6, 10] [µM] | times higher BChE inhibitory activity versus (C-2b) ([1]; comparison of IC50 values, 1-oxopropylene vs 2-hydroxypropylene spacer, same R1, R2) [times] | IC50 [3] [µM] | IC50 [4] [µM] | IC50 ([3]; read-out: [3H]МК-801, IC50, rat hippocampal membranes) [µM] | IC50 ([4]; read-out: [3H]ifenprodil, IC50, rat hippocampal membranes) [µM] | IC50 [6] [µM] | IC50 [1] [µM]
Cc1ccc2c(c1)c1c(n2CC(O)CN2c3ccccc3Sc3ccccc32)CCN(C)C1 (racemic) [C-2a] | 11.7 ± 0.4 | > 200 | 84.8 ± 9.2 | 69.7 ± 8.3 | 57.2 ± 6.7 | – | – | – | – | – | – | – | – | – | – | – | –
CCN1CCc2c(c3cc(F)ccc3n2CC(O)CN2c3ccccc3Sc3ccccc32)C1 (racemic) [C-2b] | 2.01 ± 0.04 | > 200 | 106 ± 9.2 | 25.7 ± 4.6 | 81.2 ± 6.7 | 2.98 ± 0.19 | 0.82 ± 0.02 | mixed-type inhibition; also recorded: mixed-type reversible inhibitors | 24.1 ± 1.9 | – | – | – | – | – | – | – | –
O=[N+]([O-])c1ccc(OP(=O)(O)Oc2ccc([N+](=O)[O-])cc2)cc1 [BNPP, Bis-4-nitrophenyl phosphate, reference compound] | – | 1.8 ± 0.11 | – | – | – | – | – | – | – | – | – | – | – | – | – | – | –
Cc1ccc2c(c1)c1c(n2CCC(=O)N2c3ccccc3Sc3ccccc32)CCN(C)C1 [C-1a] | 62.6 ± 4.3 | > 200 | 13.5 ± 3.6 | 42.6 ± 7.2 | 88.4 ± 8.3 | – | – | – | 80.4 ± 6.6 | > 200 | – | – | – | – | – | – | –
CCN1CCc2c(c3cc(C)ccc3n2CCC(=O)N2c3ccccc3Sc3ccccc32)C1 [C-1b] | 2.04 ± 0.55 | > 200 | 8.5 ± 0.8 | 48.1 ± 5.9 | 74.4 ± 4 | 1.46 ± 0.40 | 0.43 ± 0.05 | – | 95.7 ± 1.0 | > 200 | – | – | – | – | – | – | –
CN1CCc2c(c3cc(F)ccc3n2CCC(=O)N2c3ccccc3Sc3ccccc32)C1 [C-1c] | 1.79 ± 0.28 | > 200 | 17.7 ± 2.6 | 50.2 ± 5.2 | 55.1 ± 5.8 | 1.27 ± 0.41 | 0.48 ± 0.06 | – | 78.7 ± 1.4 | > 200 | – | – | – | – | – | – | –
CN1CCc2c(c3ccccc3n2CCC(=O)N2c3ccccc3Sc3ccccc32)C1 [C-1d] | 1.07 ± 0.12 | > 200 | 18.5 ± 0.9 | 60.1 ± 1.4 | 23.4 ± 0.7 | 1.64 ± 0.20 | 0.37 ± 0.01 | – | 74.9 ± 1.1 | > 200 | – | – | – | – | – | – | –
CCN1CCc2c(c3ccccc3n2CCC(=O)N2c3ccccc3Sc3ccccc32)C1 [C-1e] | 0.52 ± 0.01 | > 200 | 14.6 ± 1.9 | 69.4 ± 3.3 | 13.4 ± 2.6 | 0.65 ± 0.07 | 0.26 ± 0.02 | – | 76.1 ± 1.2 | > 200 | – | – | – | – | – | – | –
CCN1CCc2c(c3cc(F)ccc3n2CCC(=O)N2c3ccccc3Sc3ccccc32)C1 [C-1f] | 0.58 ± 0.06 | – | – | 78.2 ± 6.8 | – | 0.52 ± 0.04 | 0.17 ± 0.02 | mixed-type inhibition; also recorded: mixed-type reversible inhibitors | 82.4 ± 7.3 | > 200 | 3.5 | 15.8 ± 1.8 | 8.8 ± 1.8 | – | – | – | –
CCc1ccc2c(c1)c1c(n2CCC(=O)N2c3ccccc3Sc3ccccc32)CCN(C)C1 [C-1g] | 1.36 ± 0.06 | > 200 | 13.2 ± 2.2 | 64.6 ± 5.2 | 15.4 ± 3.9 | 0.99 ± 0.04 | 0.46 ± 0.02 | – | 89.4 ± 4.6 | > 100 | – | – | – | – | – | – | –
CC(C)c1ccc2c(c1)c1c(n2CCC(=O)N2c3ccccc3Sc3ccccc32)CCN(C)C1 [C-1h] | 2.79 ± 0.09 | 120 ± 13 | 17.8 ± 2 | – | 85.8 ± 7.2 | 1.94 ± 0.01 | – | non-competitive mechanism | 80.3 ± 6.9 | > 100 | – | – | – | – | – | – | –
COc1ccc2c(c1)c1c(n2C[C@@H](O)CN2c3ccccc3Sc3ccccc32)CCN(C)C1 [C-2c] | 0.39 ± 0.02 | – | – | 47.4 ± 6.6 | – | 0.89 ± 0.18 | 0.25 ± 0.04 | – | 19.1 ± 2.2 | – | – | – | – | 113 ± 11.1 | 115 ± 9.3 | – | –
CN(C)c1ccc2nc3ccc(=[N+](C)C)cc-3sc2c1 [MB, methylene blue, reference compound] | – | – | – | – | – | 0.64 ± 0.02 | – | – | 2.0 ± 4.0 | – | – | – | – | – | – | – | –
Cc1ccc2c(c1)c1c(n2CCc2ccc(C)nc2)CCN(C)C1 [dimebon, reference compound] | – | – | 91.5 ± 7.7 | 34.1 ± 4.9 | 82.4 ± 4.1 | – | – | – | 27.8 ± 3.9 | – | – | – | – | – | – | 36.3 ± 5.8 | 5.76 ± 0.51
c1ccc2c(c1)Nc1ccccc1S2 [phenothiazine] | – | – | – | – | – | – | – | – | – | – | – | – | – | – | – | – | 137 ± 31
